The source of these data is patent publication US12642777B2 (SHENZHEN CHINA RESOURCES JIUCHUANG MEDICAL AND …, priority 2020, dated 2026).

Data set [1] in a line: Pharmacokinetics and tolerated dose of intravenous mitoxantrone chemotherapy reported in a document. The format is in vivo, human. The conditions noted are these: 75 mg/m^2 intravenous bolus versus 3143 ng×min/ml. How it is done:
Moreover, the drug is metabolized rapidly after entering the blood, and the drug in the plasma is almost completely metabolized 60 min, 120 min at most, after the administration.

For data set [2] the following is noted: intravenous bolus, 75 mg/m^2, ovarian cancer; cited from earlier work.

As to `O=C1c2c(O)ccc(O)c2C(=O)c2c(NCCNCCO)ccc(NCCNCCO)c21` [mitoxantrone], in data set [1], the “AUC of the document as multiple of the maximum AUC in the present trial” value is 10.7-32.5 times. Besides, the AUC in data set [2] was 560 to 1700 ng·h/mL.
